The first test addresses T1, MCH receptor (Homo sapiens, UniProt Q99705).
T1 construct: expressed in transfected cells; host or cells: CHO cells
Put plainly: MCH Receptor Binding Assay. As to conditions: membranes from CHO cells expressing the MCH receptor, [125I]-MCH, SPA; class symbols; read-out: MCH Ki. The method, then: MCH Receptor Binding Assay: Membranes from CHO cells expressing the MCH receptor were prepared by lysing cells with 5 mM HEPES for 15 min at 4 C. Cell lysates were centrifuged ([…], 15 min) and the pellet was resuspended in 5 mM HEPES. For each 96-well plate (Microlite, Dynex Technologies), 1 mg of cell membranes were incubated with 10 mg of wheat germ agglutinin SPA beads (Amersham) for 5 min at 4 C in a volume of 10 ml of binding buffer (25 mM HEPES, 10 mM MGCl2, 10 mM NaCl, 5 mM MnCl2, 0.1% BSA). The membrane/bead mixture was centrifuged (1500×g, 3.5 min), the supernatant was aspirated, and the pellet was resuspended in 10 ml binding buffer. The centrifugation, aspiration and resuspension were then repeated. The membrane/bead mixture (100 μl) was then added to 96-well plates containing 50 μl of 500 pM [^125I]-MCH (NEN) and […] of the appropriate concentration of compound (4× the desired final concentration). Nonspecific binding was determined by including 1 μM MCH in the binding reaction. The binding reaction was incubated at room temperature for 2 h. Plates were then analyzed in a TOPCOUNT microplate scintillation counter (Packard). Data was analyzed and Ki values were determined using GraphPad Prism.
T1 sequence (Q99705 whole entry): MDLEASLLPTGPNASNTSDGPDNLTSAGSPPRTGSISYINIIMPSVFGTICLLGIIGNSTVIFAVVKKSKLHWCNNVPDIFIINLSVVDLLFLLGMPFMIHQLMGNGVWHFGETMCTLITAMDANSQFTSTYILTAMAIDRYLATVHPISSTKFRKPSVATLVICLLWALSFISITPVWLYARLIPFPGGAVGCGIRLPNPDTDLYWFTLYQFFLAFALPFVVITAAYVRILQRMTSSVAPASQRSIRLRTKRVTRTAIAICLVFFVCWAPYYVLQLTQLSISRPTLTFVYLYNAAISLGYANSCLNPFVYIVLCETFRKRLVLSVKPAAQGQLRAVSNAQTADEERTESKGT
As for `N#Cc1cccc(-c2ccc(C3(c4nc5cc(Cl)c(Cl)cc5[nH]4)CC34CCNCC4)cc2)c1` (centres unmarked) [Compound 24b], the Ki was < 0.02 µM.

On to `CCN(CC)C(=O)N1CCC(=C(c2ccc(-c3cccc(C#N)c3)cc2)c2nc3cc(F)c(C(F)(F)F)cc3[nH]2)CC1` [Compound 1x], for which the Ki lay within 0.02 to 0.05 µM. For `N#Cc1cccc(-c2ccc(C3(c4nc5cc(F)c(C(F)(F)F)cc5[nH]4)CC34CCNCC4)cc2)c1` (centres unmarked) [Compound 24a], the Ki was < 0.02 µM. Same read-out and setting: with `CN1CCC(=C(c2ccc(-c3cccc(C#N)c3)cc2)c2nc3cc(Cl)c(Cl)cc3[nH]2)CC1` [Compound 1e] the figure was 0.02 to 0.05 µM; with `CN(C)Cc1cccc(-c2ccc(C(=C3CCN(CC4CC4)CC3)c3nc4cc(Cl)c(Cl)cc4[nH]3)cc2)c1` [Compound 1l], 0.02 to 0.05 µM. On to `N#Cc1cccc(-c2ccc(C(=C3CCN(C4CCCC4)CC3)c3nc4cc(Cl)c(Cl)cc4[nH]3)cc2)c1` [Compound 1f], for which the Ki is < 0.02 µM. With `O=Cc1cccc(-c2ccc(C(=C3CCN(CC4CC4)CC3)c3nc4cc(Cl)c(Cl)cc4[nH]3)cc2)c1` [Compound 1k], the Ki was in the range of 0.02 to 0.05 µM. With `N#Cc1cccc(-c2ccc(C(=C3CCNCC3)c3nc4c(Cl)cc(Cl)cc4[nH]3)cc2)c1` [Compound 1t], the Ki is > 0.1 µM.

Take `COc1cc(C(=C2CCNCC2)c2nc3cc(F)c(C(F)(F)F)cc3[nH]2)ccc1-c1cccc(C#N)c1` [Compound 1ab]: the Ki is > 0.1 µM.

Consider `CN(C)C(=O)N1CCC(=C(c2ccc(-c3cccc(C#N)c3)cc2)c2nc3cc(F)c(C(F)(F)F)cc3[nH]2)CC1` [Compound 1y], for which the Ki lay within 0.02 to 0.05 µM. Still for that read-out and setting: the same measure for `CS(=O)(=O)N1CCC(=C(c2ccc(-c3cccc(C#N)c3)cc2)c2nc3cc(Cl)c(Cl)cc3[nH]2)CC1` [Compound 1g]: 0.05 to 0.1 µM; for `Clc1cc2nc(C(=C3CCN(CC4CC4)CC3)c3ccc(-c4cccnc4)cc3)[nH]c2cc1Cl` [Compound 1j]: 0.05 to 0.1 µM; for `N#Cc1cccc(-c2ccc(C(=C3CCNCC3)c3nc4cc(Cl)c(Cl)cc4[nH]3)cc2)c1` [Compound 1c]: < 0.02 µM. Same read-out and setting: the same measure for `N#Cc1cccc(-c2ccc(C(=C3CCN(Cc4ccccc4)CC3)c3nc4cc(F)c(Cl)cc4[nH]3)cc2)c1` [Compound 1b]: < 0.02 µM; for `CC(C)S(=O)(=O)N1CCC2(CC1)CC2(c1ccc(-c2cccc(C#N)c2)cc1)c1nc2cc(F)c(C(F)(F)F)cc2[nH]1` (centres unmarked) [Compound 26a]: 0.05 to 0.1 µM. Still for that read-out and setting: the same measure for `COc1cc(C(=C2CCN(CC3CC3)CC2)c2nc3cc(F)c(C(F)(F)F)cc3[nH]2)ccc1-c1cccc(C#N)c1` [Compound 1aa]: > 0.1 µM; for `N#Cc1cccc(-c2ccc(C3(c4nc5cc(F)c(C(F)(F)F)cc5[nH]4)CC34CCN(c3nccs3)CC4)cc2)c1` (centres unmarked) [Compound 29a]: > 0.1 µM. As to `CCN(CC)C(=O)N1CCC2(CC1)CC2(c1ccc(-c2cccc(C#N)c2)cc1)c1nc2cc(F)c(C(F)(F)F)cc2[nH]1` (centres unmarked) [Compound 27c], the Ki was > 0.1 µM.

Consider `CS(=O)(=O)N1CCC(=C(c2ccc(-c3cccc(C#N)c3)cc2)c2nc3cc(F)c(C(F)(F)F)cc3[nH]2)CC1` [Compound 1v], for which the Ki was 0.05 to 0.1 µM.

On to `CN1CCC(=C(c2ccc(-c3cccc(C#N)c3)cc2)c2nc3cc(F)c(F)cc3[nH]2)CC1` [Compound 1p], for which the Ki is > 0.1 µM.

`N#Cc1cccc(-c2ccc(C(=C3CCNCC3)c3nc4cc(F)c(F)cc4[nH]3)cc2)c1` [Compound 1o]: the Ki was in the range of 0.05 to 0.1 µM. The same measure, in the same setting: the same measure for `N#Cc1cccc(-c2ccc(C3(c4nc5cc(F)c(C(F)(F)F)cc5[nH]4)CC34CCN(c3nc5ccccc5s3)CC4)cc2)c1` (centres unmarked) [Compound 29c]: > 0.1 µM. The same measure, in the same setting: the same measure for `N#Cc1cccc(-c2ccc(C(=C3CCN(CC4CC4)CC3)c3nc4cc(F)c(F)cc4[nH]3)cc2)c1` [Compound 1q]: 0.05 to 0.1 µM; for `N#Cc1ccc(-c2ccc(C(=C3CCN(CC4CC4)CC3)c3nc4cc(Cl)c(Cl)cc4[nH]3)cc2)cc1` [Compound 1i]: > 0.1 µM.

On to `CC(C)(C)OC(=O)N1CCC2(CC1)CC2(c1ccc(-c2cccc(C#N)c2)cc1)c1nc2cc(F)c(C(F)(F)F)cc2[nH]1` (centres unmarked) [Compound 23a], for which the Ki was > 0.1 µM.

`CC(C)S(=O)(=O)N1CCC2(CC1)CC2(c1ccc(-c2cccc(C#N)c2)cc1)c1nc2cc(Cl)c(Cl)cc2[nH]1` (centres unmarked) [Compound 26b]: the Ki was > 0.1 µM. Still for that read-out and setting: with `N#Cc1cccc(-c2ccc(C3(c4nc5cc(Cl)c(Cl)cc5[nH]4)CC34CCN(Cc3ccccc3)CC4)cc2)c1` (centres unmarked) [Compound 23c] the figure was < 0.02 µM; with `N#Cc1cccc(-c2ccc(C3(c4nc5cc(F)c(C(F)(F)F)cc5[nH]4)CC34CCN(CC(=O)O)CC4)cc2)c1` (centres unmarked) [Compound 28a], 0.02 to 0.05 µM. Same read-out and setting: the same measure for `CN(C)C(=O)N1CCC2(CC1)CC2(c1ccc(-c2cccc(C#N)c2)cc1)c1nc2cc(F)c(C(F)(F)F)cc2[nH]1` (centres unmarked) [Compound 27a]: 0.02 to 0.05 µM. Still for that read-out and setting: the same measure for `N#Cc1cccc(-c2ccc(C(=C3CCN(Cc4ccccc4)CC3)c3nc4cc(F)ccc4[nH]3)cc2)c1` [Compound 1a]: > 0.1 µM; for `N#Cc1cccc(-c2ccc(C(=C3CCN(CC4CC4)CC3)c3nc4cc(Cl)cc(Cl)c4[nH]3)cc2)c1` [Compound 1u]: 0.05 to 0.1 µM. Turning to `N#Cc1cccc(-c2ccc(C(=C3CCN(CC4CC4)CC3)c3nc4cc(Cl)c(Cl)cc4[nH]3)cc2)c1` [Compound 1d], the Ki was < 0.02 µM. As for `N#Cc1cccc(-c2ccc(C3(c4nc5cc(F)c(C(F)(F)F)cc5[nH]4)CC34CCN(c3nc5ccc(Cl)cc5s3)CC4)cc2)c1` (centres unmarked) [Compound 29b], the inhibition constant Ki was > 0.1 µM.

`N#Cc1cccc(-c2ccc(C(=C3CCNCC3)c3nc4cc(C(F)(F)F)c(F)cc4[nH]3)cc2)c1` [Compound 1r]: the Ki was < 0.02 µM.

For the compound `Fc1cc(F)cc(-c2ccc(C(=C3CCN(CC4CC4)CC3)c3nc4cc(Cl)c(Cl)cc4[nH]3)cc2)c1` [Compound 1h], the Ki is > 0.1 µM. For `CC(C)(C)OC(=O)N1CCC2(CC1)CC2(c1ccc(-c2cccc(C#N)c2)cc1)c1nc2cc(Cl)c(Cl)cc2[nH]1` (centres unmarked) [Compound 23b], the Ki was > 0.1 µM.

Consider `N#Cc1cccc(-c2ccc(C(=C3CCN(CC(=O)O)CC3)c3nc4cc(F)c(C(F)(F)F)cc4[nH]3)cc2)c1` [Compound 1z], for which the Ki was < 0.02 µM. Still for that read-out and setting: the same measure for `CC(C)(C)OC(=O)N1CCC(=C(c2ccc(-c3cccc(C#N)c3)cc2)c2nc3cc(F)c(F)cc3[nH]2)CC1` [Compound 1n]: > 0.1 µM. Still for that read-out and setting: with `Clc1cc2nc(C(=C3CCN(CC4CC4)CC3)c3ccc(-c4cccc(CN5CCC5)c4)cc3)[nH]c2cc1Cl` [Compound 1m] the figure was 0.05 to 0.1 µM.

On to `N#Cc1cccc(-c2ccc(C3(c4nc5cc(Cl)c(Cl)cc5[nH]4)CC34CCN(CC3CC3)CC4)cc2)c1` (centres unmarked) [Compound 25b], for which the Ki is < 0.02 µM.

The same test, now with this note: membranes from CHO cells expressing the MCH receptor, [125I]-MCH, SPA; numeric value in text; read-out: Ki value.
Turning to `N#Cc1cccc(-c2ccc(C3(c4nc5cc(F)c(C(F)(F)F)cc5[nH]4)CC34CCNCC4)cc2)c1` (centres unmarked) [Compound 24a], the Ki was 0.0017 µM.

As usually defined, the Ki is a measure of affinity in units of concentration, obtained from inhibition or displacement.

For the origin of these results see patent US7214691B2, “2-substituted benzimidazole derivatives as selective melanin concentrating hormone receptor antagonists for the treatment of obesity and related disorders” (Schering Corporation, priority 2003, dated 2007).
